Columns and labels:
Format in all cases: physicochemical
[1] = Hydration mapping starting with amorphous compound 1
Method: To establish the hydration map of compound 1, solutions with varying water activity (aw) were prepared and the aw was measured using a water activity meter. Table 13 below details the solvent systems investigated and their corresponding measured water activities.
To prepare amorphous material, 480 mg of Form A of compound 1 was weighed into a vial before being dissolved in 24 mL 1,4-dioxane. The resulting solution was then split evenly between 24 vials before being placed in the chamber of a freeze dryer at −50° C. to completely freeze the samples. The samples were then freeze dried overnight (approx. 18 h) and fluffy off-white solids were recovered. A small sub-sample of solid from one vial was analyzed by XRPD to confirm that amorphization had occurred. Using the other 23 vials of amorphous material, 1 mL of the solutions prepared above was added to each vial to prepare slurries. As before, where solutions were observed a brief manual agitation, an additional ˜10 to 20 mg of amorphous material was added to prepare a slurry. Additional solid was added to the 2-MeTHF, acetone/water (aw of 0.14 and 0.28), methanol/water (aw of 0.11) and acetonitrile/water (aw of 0.11) samples. All slurries were then agitated for 72 h at 25° C. After 72 h, aliquots of solid were isolated via centrifugal filtration and analyzed by XRPD.

[2] = Ethanol/hydrocarbon mixtures slurry study
Method: Using the methods described above for the Form A input and amorphous input experiments, 5×20 mg of Form A slurries and 5×20 mg of amorphous input slurries were prepared by adding 1 mL of solvent (see Table 16 below) to each vial and the resulting slurries were agitated for 24 h at 25° C. After 24 h, aliquots of solid were isolated via centrifugal filtration and analysed by XRPD.

[3] = Form investigation in buffered media; settings: for XRPD Pattern / pH (24 h): 24 h at 25° C.
Method: To investigate the polymorphic landscape of compound 1 in buffered systems, 5×20 mg of Form A slurries and 5×20 mg of amorphous slurries (amorphous material prepared using the method described in the above hydration mapping experiments) were prepared by adding 1 mL of buffer to each vial and the resulting slurries were agitated for 24 h at 25° C. The pH was measured post-buffer addition and after 24 h agitation. After 24 h, aliquots of solid were isolated via centrifugal filtration and analysed by XRPD.

XRPD pattern observed, 72 h ([1]; 2-MeTHF, aw 0.0378, 25° C.): Forms A, H^A and D
XRPD pattern observed, 72 h ([1]; Acetone/Water, aw 0.1363, 25° C.): Form H^A
XRPD pattern observed, 72 h ([1]; Acetone/Water, aw 0.2621, 25° C.): Form H^A
XRPD pattern observed, 72 h ([1]; Acetone/Water, aw 0.5455, 25° C.): Form H^A
XRPD pattern observed, 72 h ([1]; Acetone/Water, aw 0.7082, 25° C.): Form H^A
XRPD pattern observed, 72 h ([1]; Acetone/Water, aw 0.9439, 25° C.): Form H^A and possibly Form C
XRPD pattern observed, 72 h ([1]; EtOH/Heptane, aw 0.0300, 25° C.): Form E
XRPD pattern observed, 72 h ([1]; EtOH/Water, aw 0.1580, 25° C.): Form H^A
XRPD pattern observed, 72 h ([1]; EtOH/Water, aw 0.3377, 25° C.): Form H^A
XRPD pattern observed, 72 h ([1]; EtOH/Water, aw 0.4986, 25° C.): Form H^A
XRPD pattern observed, 72 h ([1]; EtOH/Water, aw 0.7600, 25° C.): Form A and Form H^A and additional peaks
XRPD pattern observed, 72 h ([1]; EtOH/Water, aw 0.9005, 25° C.): Form A and Form H^A and additional peaks
XRPD pattern observed, 72 h ([1]; MeCN/Water, aw 0.1060, 25° C.): Form H^A
XRPD pattern observed, 72 h ([1]; MeCN/Water, aw 0.3664, 25° C.): Form H^A
XRPD pattern observed, 72 h ([1]; MeCN/Water, aw 0.5573, 25° C.): Form H^A
XRPD pattern observed, 72 h ([1]; MeCN/Water, aw 0.7300, 25° C.): Form H^A
XRPD pattern observed, 72 h ([1]; MeCN/Water, aw 0.8946, 25° C.): Form H^A
XRPD pattern observed, 72 h ([1]; MeOH/Water, aw 0.0963, 25° C.): Form H^A
XRPD pattern observed, 72 h ([1]; MeOH/Water, aw 0.3242, 25° C.): Form H
XRPD pattern observed, 72 h ([1]; MeOH/Water, aw 0.5145, 25° C.): Form H^A
XRPD pattern observed, 72 h ([1]; MeOH/Water, aw 0.6965, 25° C.): Form H^A
XRPD pattern observed, 72 h ([1]; MeOH/Water, aw 0.9294, 25° C.): Form C
XRPD pattern observed, 72 h ([1]; Water/2-MeTHF, aw 0.5286, 25° C.): Form H^A
XRPD pattern observed ([2]; EtOH/Cyclohexane (50:50% v/v), aw 0.025, 24 h at 25° C.): Form E
XRPD pattern observed ([2]; EtOH/Dodecane (50:50% v/v), aw 0.024, 24 h at 25° C.): Form H^A
XRPD pattern observed ([2]; EtOH/Hexane (50:50% v/v), aw 0.018, 24 h at 25° C.): Form E
XRPD pattern observed ([2]; EtOH/Methylcyclohexane (50:50% v/v), aw 0.019, 24 h at 25° C.): Form E
XRPD pattern observed ([2]; EtOH/Octane (50:50% v/v), aw 0.019, 24 h at 25° C.): Form E
XRPD Pattern ([3]; NaOH (0.2M)): Form C
XRPD Pattern ([3]; pH 1.2 (HCl—KCl)): HCl Salt Form
XRPD Pattern ([3]; pH 4.5 (acetate)): Form F
XRPD Pattern ([3]; pH 6.8 (phosphate)): Form C
XRPD Pattern ([3]; pH 8 (PBS)): Form H^B
pH (Post-Buffer Addition) ([3]; slurry in NaOH (0.2M)): 11.97
pH (24 h) ([3]; slurry in NaOH (0.2M)): 11.87
pH (Post-Buffer Addition) ([3]; slurry in pH 1.2 (HCl—KCl)): 1.21
pH (24 h) ([3]; slurry in pH 1.2 (HCl—KCl)): 1.21
pH (Post-Buffer Addition) ([3]; slurry in pH 4.5 (acetate)): 4.53
pH (24 h) ([3]; slurry in pH 4.5 (acetate)): 4.55
pH (Post-Buffer Addition) ([3]; slurry in pH 6.8 (phosphate)): 6.85
pH (24 h) ([3]; slurry in pH 6.8 (phosphate)): 6.87
pH (Post-Buffer Addition) ([3]; slurry in pH 8 (PBS)): 8.01
pH (24 h) ([3]; slurry in pH 8 (PBS)): 8.11
Structure (SMILES): Cc1ccc(-c2noc([C@H]3C[C@@H]3F)n2)cc1NC(=O)c1cnc2ccccn12 [Amorphous Compound 1, N-(5-(5-((1R,2S)-2-fluorocyclopropyl)-1,2,4-oxadiazol-3-yl)-2-methylphenyl)imidazo[1,2-a]pyridine-3-carboxamide]

— patent US11767319B2, “Crystalline forms of a selective c-kit kinase inhibitor” (Third Harmonic Bio, Inc., priority 2020, dated 2023)
